Laboratory results reported in ChEMBL document CHEMBL3045707, “Synthesis of new 3-aryl-4-(3-aryl-4,5-dihydro-1H-pyrazol-5-yl)-1-phenyl-1H-pyrazole derivatives as potential antimicrobial agents” (2013).

Assays:
Assay type in all cases: functional
Escherichia coli [1] = experiment: Antimicrobial activity against Escherichia coli ATCC 25922 assessed as diameter of growth inhibition zone at 1000 ug/ml after 24 hr by agar well plate method; conditions: ATCC 25922, 24 h, read-out: DIZ
Candida albicans [2] = experiment: Antimicrobial activity against Candida albicans MTCC 227 assessed as diameter of growth inhibition zone at 500 ug/ml after 72 hr by agar well plate method; conditions: MTCC 227, 72 h, read-out: DIZ
[3] = system: Chrysosporium keratinophilum; experiment: Antimicrobial activity against Chrysosporium keratinophilum assessed as diameter of growth inhibition zone at 500 ug/ml after 72 hr by agar well plate method; conditions: read-out: DIZ
Aspergillus flavus [4] = experiment: Antimicrobial activity against Aspergillus flavus assessed as diameter of growth inhibition zone at 500 ug/ml after 72 hr by agar well plate method; conditions: read-out: DIZ
Candida albicans [5] = experiment: Antimicrobial activity against Candida albicans MTCC 227 assessed as diameter of growth inhibition zone at 1000 ug/ml after 72 hr by agar well plate method; conditions: MTCC 227, 72 h, read-out: DIZ
[6] = system: Chrysosporium keratinophilum; experiment: Antimicrobial activity against Chrysosporium keratinophilum assessed as diameter of growth inhibition zone at 1000 ug/ml after 72 hr by agar well plate method; conditions: read-out: DIZ
Aspergillus flavus [7] = experiment: Antimicrobial activity against Aspergillus flavus assessed as diameter of growth inhibition zone at 1000 ug/ml after 72 hr by agar well plate method; conditions: read-out: DIZ
Pseudomonas aeruginosa [8] = experiment: Antimicrobial activity against Pseudomonas aeruginosa ATCC 27853 assessed as diameter of growth inhibition zone at 500 ug/ml after 24 hr by agar well plate method; conditions: ATCC 27853, 24 h, read-out: DIZ
Escherichia coli [9] = experiment: Antimicrobial activity against Escherichia coli ATCC 25922 assessed as diameter of growth inhibition zone at 500 ug/ml after 24 hr by agar well plate method; conditions: ATCC 25922, 24 h, read-out: DIZ
Staphylococcus aureus [10] = experiment: Antimicrobial activity against Staphylococcus aureus ATCC 25923 assessed as diameter of growth inhibition zone at 500 ug/ml after 24 hr by agar well plate method; conditions: ATCC 25923, 24 h, read-out: DIZ
Pseudomonas aeruginosa [11] = experiment: Antimicrobial activity against Pseudomonas aeruginosa ATCC 27853 assessed as diameter of growth inhibition zone at 1000 ug/ml after 24 hr by agar well plate method; conditions: ATCC 27853, 24 h, read-out: DIZ
Staphylococcus aureus [12] = experiment: Antimicrobial activity against Staphylococcus aureus ATCC 25923 assessed as diameter of growth inhibition zone at 1000 ug/ml after 24 hr by agar well plate method; conditions: ATCC 25923, 24 h, read-out: DIZ

| Compound | zone of inhibition at 1000 µg/mL (Escherichia coli [1]) [mm] | zone of inhibition at 500 µg/mL (Candida albicans [2]) [mm] | zone of inhibition at 500 µg/mL [3] [mm] | zone of inhibition at 500 µg/mL (Aspergillus flavus [4]) [mm] | zone of inhibition at 1000 µg/mL (Candida albicans [5]) [mm] | zone of inhibition at 1000 µg/mL [6] [mm] | zone of inhibition at 1000 µg/mL (Aspergillus flavus [7]) [mm] | zone of inhibition at 500 µg/mL (Pseudomonas aeruginosa [8]) [mm] | zone of inhibition at 500 µg/mL (Escherichia coli [9]) [mm] | zone of inhibition at 500 µg/mL (Staphylococcus aureus [10]) [mm] | zone of inhibition at 1000 µg/mL (Pseudomonas aeruginosa [11]) [mm] | zone of inhibition at 1000 µg/mL (Staphylococcus aureus [12]) [mm] |
| --- | --- | --- | --- | --- | --- | --- | --- | --- | --- | --- | --- | --- |
| COc1ccc(-c2nn(-c3ccccc3)cc2C2CC(c3ccc(SC)cc3)=NN2c2ccccc2)cc1 (configuration not stated) | 2 | 0 | 0 | 0 | 0 | 0 | 0 | 2 | 1 | 3 | 4 | 4 |
| COc1ccc(-c2nn(-c3ccccc3)cc2C2CC(c3ccc(Cl)cc3Cl)=NN2c2ccccc2)cc1 (configuration not stated) | 3 | 0 | 0 | 0 | 0 | 0 | 0 | 1 | 2 | 3 | 4 | 4 |
| Clc1ccc(-c2nn(-c3ccccc3)cc2C2CC(c3ccc(Cl)cc3Cl)=NN2c2ccccc2)cc1 (configuration not stated) | 6 | 2 | 2 | 2 | 4 | 5 | 4 | 6 | 4 | 4 | 8 | 7 |
| Clc1ccc(C2=NN(c3ccccc3)C(c3cn(-c4ccccc4)nc3-c3ccc(Br)cc3)C2)c(Cl)c1 (configuration not stated) | 8 | 1 | 2 | 1 | 3 | 4 | 4 | 5 | 5 | 6 | 5 | 8 |
| Clc1ccc(C2=NN(c3ccccc3)C(c3cn(-c4ccccc4)nc3-c3ccccc3)C2)c(Cl)c1 (configuration not stated) | 0 | 0 | 0 | 0 | 0 | 0 | 0 | 0 | 0 | 0 | 0 | 0 |
| CSc1ccc(C2=NN(c3ccccc3)C(c3cn(-c4ccccc4)nc3-c3ccc(Br)cc3)C2)cc1 (configuration not stated) | 7 | 2 | 5 | 3 | 4 | 6 | 4 | 6 | 6 | 7 | 8 | 9 |
